Reference: patent US11566007B2, “Ras inhibitors” (Revolution Medicines, Inc., priority 2019, dated 2023)

Tests used:
KRAS G12V = KRAS G12V (Homo sapiens (Human), UniProt P01116+P62937, G12V); experiment: Ras-Raf (BRAF RBD) disruption / FRET / MOA assay, KRAS G12V; assay type: biochemical; settings: read-out: IC50* KRAS G12V FRET data
Outline: (§1)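 TR-FRET read-out: a drop in ratio relative to DMSO wells marks disruption of the Ras:RAF complex, reported as IC50. Compounds (3-fold series, 10 points, top 30 μM final) incubated 3 h at 25° C before Eu-anti-His 10 nM and APC-anti-GST 50 nM, 1.5 h more.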

NRAS G12C = NRAS G12C (Homo sapiens (Human), UniProt P01111+P62937, G12C); experiment: Ras-Raf (BRAF RBD) disruption / FRET / MOA assay, NRAS G12C; assay type: biochemical; settings: read-out: IC50* NRAS G12C FRET data
NRAS G12C, sequence (P01111 whole entry G12C): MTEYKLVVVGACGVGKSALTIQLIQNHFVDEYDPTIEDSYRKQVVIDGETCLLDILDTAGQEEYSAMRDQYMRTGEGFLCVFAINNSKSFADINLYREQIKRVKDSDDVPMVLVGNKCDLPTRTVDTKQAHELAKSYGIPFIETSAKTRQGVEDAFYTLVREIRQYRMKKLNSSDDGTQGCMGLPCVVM
NRAS G12C, sequence (P62937 whole entry): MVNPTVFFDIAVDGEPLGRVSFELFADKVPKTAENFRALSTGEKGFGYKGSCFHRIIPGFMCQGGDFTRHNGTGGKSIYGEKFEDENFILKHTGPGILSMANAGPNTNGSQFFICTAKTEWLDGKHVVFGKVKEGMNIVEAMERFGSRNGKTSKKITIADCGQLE
Outline: as §1

KRAS G12S = KRAS G12S (Homo sapiens (Human), UniProt P01116+P62937, G12S); experiment: Ras-Raf (BRAF RBD) disruption / FRET / MOA assay, KRAS G12S; assay type: biochemical; settings: Ras-Raf disruption/FRET/MOA assay; class symbols; read-out: KRAS G12S FRET data IC50
KRAS G12S, sequence (P01116-2 other isoform, or with tags, fused parts or gaps G12S): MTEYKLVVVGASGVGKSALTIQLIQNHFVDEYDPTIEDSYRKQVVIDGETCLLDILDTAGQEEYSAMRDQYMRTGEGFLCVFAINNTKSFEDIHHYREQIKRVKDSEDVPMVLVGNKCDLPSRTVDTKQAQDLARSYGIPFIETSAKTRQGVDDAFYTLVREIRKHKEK
KRAS G12S, sequence (P62937 whole entry): as the sequence (P62937 whole entry) above
Outline: as §1

K-Ras G13C = K-Ras G13C (Homo sapiens (Human), UniProt P01116+P62937, G13C); experiment: Ras-Raf (BRAF RBD) disruption / FRET / MOA assay, KRAS G13C; assay type: biochemical; settings: KRAS G13C; Ras-Raf disruption/FRET/MOA assay; read-out: IC50* KRAS G13C FRET data
K-Ras G13C, sequence (P01116-2 other isoform, or with tags, fused parts or gaps G13C): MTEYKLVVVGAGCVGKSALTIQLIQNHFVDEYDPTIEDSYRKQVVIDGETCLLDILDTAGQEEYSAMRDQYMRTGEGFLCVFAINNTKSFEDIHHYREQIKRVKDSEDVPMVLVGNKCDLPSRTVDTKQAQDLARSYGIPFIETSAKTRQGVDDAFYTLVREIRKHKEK
K-Ras G13C, sequence (P62937 whole entry): as the sequence (P62937 whole entry) above
Outline: as §1

[1] = test system: NCI-H358 cells (K-Ras G12C); experiment: Potency assay: pERK in NCI-H358 cells; assay type: cell-based, human; settings: Homo sapiens, NCI-H358; H358 KRAS G12C; read-out: pERK EC50
Outline: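 pERK decrease read by AlphaLISA SureFire p-ERK1/2 or In-Cell Western after 4 h compound exposure at 37 °C, 5% CO2.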

K-Ras G12C = K-Ras G12C (Homo sapiens (Human), UniProt P01116+P62937, G12C); experiment: Ras-Raf (BRAF RBD) disruption / FRET / MOA assay, KRAS G12C; assay type: biochemical; settings: KRAS G12C; Ras-Raf disruption/FRET/MOA assay; read-out: IC50* KRAS G12C FRET data
K-Ras G12C, sequence (P01116-2 other isoform, or with tags, fused parts or gaps G12C): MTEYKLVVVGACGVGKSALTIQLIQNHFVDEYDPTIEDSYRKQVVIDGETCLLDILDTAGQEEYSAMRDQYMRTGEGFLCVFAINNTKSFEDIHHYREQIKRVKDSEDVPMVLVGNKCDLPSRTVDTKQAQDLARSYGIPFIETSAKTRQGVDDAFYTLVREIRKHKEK
K-Ras G12C, sequence (P62937 whole entry): as the sequence (P62937 whole entry) above
Outline: as §1

NCI-H358 (K-Ras G12C) = experiment: CellTiter-Glo cell viability assay, NCI-H358; assay type: cell-based, human; settings: Homo sapiens, NCI-H358, 120 h, NCI-H358, 5-day treatment; class symbols; read-out: Additional H358 Cell Viability assay data (K-Ras G12C, IC50)
Outline: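 Compounds dispensed directly onto seeded K-Ras mutant cells; plates read on day 5 after ~30 min equilibration to room temperature, by CellTiter-Glo luminescence. Signal normalized as (sample/mean DMSO)×100, then fitted to a four-parameter logistic curve.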

KRAS G12D = KRAS G12D (Homo sapiens (Human), UniProt P01116+P62937, G12D); experiment: Ras-Raf (BRAF RBD) disruption / FRET / MOA assay, KRAS G12D; assay type: biochemical; settings: Ras-Raf disruption/FRET/MOA assay; class symbols; read-out: KRAS G12D FRET data IC50
KRAS G12D, sequence (P01116-2 other isoform, or with tags, fused parts or gaps G12D): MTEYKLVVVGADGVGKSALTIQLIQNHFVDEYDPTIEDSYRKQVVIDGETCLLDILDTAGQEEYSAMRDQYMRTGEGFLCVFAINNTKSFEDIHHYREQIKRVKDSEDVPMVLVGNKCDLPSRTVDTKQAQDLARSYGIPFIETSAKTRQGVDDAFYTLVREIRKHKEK
KRAS G12D, sequence (P62937 whole entry): as the sequence (P62937 whole entry) above
Outline: as §1

KRAS WT = KRAS WT (Homo sapiens (Human), UniProt P01116+P62937); experiment: Ras-Raf (BRAF RBD) disruption / FRET / MOA assay, KRAS WT; assay type: biochemical; settings: read-out: IC50* KRAS WT FRET data
KRAS WT, sequence (P01116-2 other isoform, or with tags, fused parts or gaps): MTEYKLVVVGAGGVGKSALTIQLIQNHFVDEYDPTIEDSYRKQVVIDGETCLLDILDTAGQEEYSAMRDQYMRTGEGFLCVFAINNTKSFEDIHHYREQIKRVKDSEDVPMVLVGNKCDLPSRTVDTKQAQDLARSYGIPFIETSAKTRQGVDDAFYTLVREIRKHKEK
KRAS WT, sequence (P62937 whole entry): as the sequence (P62937 whole entry) above
Outline: as §1

KRAS G13D = KRAS G13D (Homo sapiens (Human), UniProt P01116+P62937, G13D); experiment: Ras-Raf (BRAF RBD) disruption / FRET / MOA assay, KRAS G13D; assay type: biochemical; settings: read-out: IC50* KRAS G13D FRET data
KRAS G13D, sequence (P01116-2 other isoform, or with tags, fused parts or gaps G13D): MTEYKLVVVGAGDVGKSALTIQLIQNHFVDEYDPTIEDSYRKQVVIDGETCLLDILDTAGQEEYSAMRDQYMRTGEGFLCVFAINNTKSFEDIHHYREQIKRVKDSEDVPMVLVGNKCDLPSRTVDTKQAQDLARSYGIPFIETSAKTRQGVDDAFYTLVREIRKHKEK
KRAS G13D, sequence (P62937 whole entry): as the sequence (P62937 whole entry) above
Outline: as §1

KRAS G12V, sequence (P01116-2 other isoform, or with tags, fused parts or gaps G12V): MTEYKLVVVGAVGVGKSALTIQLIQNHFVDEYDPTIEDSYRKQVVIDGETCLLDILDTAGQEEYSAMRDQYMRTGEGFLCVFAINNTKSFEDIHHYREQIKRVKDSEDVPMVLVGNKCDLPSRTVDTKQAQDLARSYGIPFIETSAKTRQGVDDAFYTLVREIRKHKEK
KRAS G12V, sequence (P62937 whole entry): as the sequence (P62937 whole entry) above

Row | SMILES | IC50 (KRAS G12V) [nM] | IC50 (NRAS G12C) [nM] | IC50 (KRAS G12S) [nM] | IC50 (K-Ras G13C) [nM] | EC50 [1] [nM] | IC50 (K-Ras G12C) [nM] | IC50 (NCI-H358 (K-Ras G12C)) [nM] | IC50 (KRAS G12D) [nM] | IC50 (KRAS WT) [nM] | IC50 (KRAS G13D) [nM]
1 | C=CC(=O)N1CC[C@H](C(=O)N(C)[C@H](C(=O)N[C@H]2Cc3cc(O)cc(c3)-c3ccc4c(c3)c(c(-c3cnccc3[C@H](C)OC)n4CC)CC(C)(C)COC(=O)[C@@H]3CCCN(N3)C2=O)C(C)C)C1 [Example A112] | 1000 to 10000 | 100 to 1000 | 1000 to 10000 | 1000 to 10000 | < 5000 | 100 to 1000 | 10 to 100 | > 10000 | 1000 to 10000 | 1000 to 10000
2 | CCn1c(-c2ccccc2CN(C)C)c2c3cc(ccc31)-c1cc(O)cc(c1)C[C@H](NC(=O)[C@H](C(C)C)N(C)C(=O)c1ncc(NC(=O)/C=C/CN(C)C)n1C)C(=O)N1CCC[C@H](N1)C(=O)OCC(C)(C)C2 [Example A116] | > 10000 | < 10 | > 10000 | 10 to 100 | < 5000 | < 10 | 100 to 1000 | 1000 to 10000 | 1000 to 10000 | 1000 to 10000
3 | C=CC(=O)N(C)CCC(=O)N(C)[C@H](C(=O)N[C@H]1Cc2cc(O)cc(c2)-c2ccc3c(c2)c(c(-c2cccnc2COC)n3CC)CC(C)(C)COC(=O)[C@@H]2CCCN(N2)C1=O)C(C)C [Example A117] | 1000 to 10000 | 100 to 1000 | 1000 to 10000 | 100 to 1000 | < 5000 | 100 to 1000 | 100 to 1000 | > 10000 | 1000 to 10000 | 1000 to 10000
4 | C=CC(=O)N1CC[C@H](C(=O)N(C)[C@H](C(=O)N[C@H]2Cc3csc(n3)-c3ccc4c(c3)c(c(-c3cccnc3COC)n4CC)CC(C)(C)COC(=O)[C@@H]3CCCN(N3)C2=O)C(C)C)C1 [Example A118, (2S)-N-[(7S,13S)-21-ethyl-20-[2-(methoxymethyl)pyridin-3-yl]-17,17-dimethyl-8,14-dioxo-15-oxa-3-thia-9,21,27,28-tetraazapentacyclo[17.5.2.1^2,^5.1^9,^13.0^22,^26]octacosa-1(25),2(28),4,19,22(26),23-hexaen-7-yl]-3-methyl-2-{N-methyl-1-[(3S)-1-(prop-2-enoyl)pyrrolidin-3-yl]formamido}butanamide] | > 10000 | 100 to 1000 | > 10000 | > 10000 | < 5000 | 100 to 1000 | 100 to 1000 | > 10000 | > 10000 | > 10000
5 | CCn1c(-c2cnccc2[C@H](C)OC)c2c3cc(ccc31)-c1cc(O)cc(c1)C[C@H](NC(=O)[C@H](C(C)C)N(C)C(=O)[C@H]1CCN(C(=O)C#CCN(C)C)C1)C(=O)N1CCC[C@H](N1)C(=O)OCC(C)(C)C2 [Example A123] | 100 to 1000 | < 10 | 100 to 1000 | 10 to 100 | < 5000 | 10 to 100 | < 10 | 100 to 1000 | 100 to 1000 | 100 to 1000
6 | C=CC(=O)N1CCN(C(=O)N(C)[C@H](C(=O)N[C@H]2Cc3cc(O)cc(c3)-c3ccc4c(c3)c(c(-c3ccccc3CCOC)n4CC)CC(C)(C)COC(=O)[C@@H]3CCCN(N3)C2=O)C(C)C)C[C@@H]1COC [Example A125] | 1000 to 10000 | 1000 to 10000 | 1000 to 10000 | 100 to 1000 | < 5000 | 100 to 1000 | > 1000 | > 10000 | 1000 to 10000 | 1000 to 10000
7 | CCn1c(-c2ccccc2CN(C)C)c2c3cc(ccc31)-c1cc(O)cc(c1)C[C@H](NC(=O)[C@@H](C(C)C)N(C)C(=O)c1ncc(NC(=O)/C=C/CN(C)C)n1C)C(=O)N1CCC[C@H](N1)C(=O)OCC(C)(C)C2 [Example A126] | > 10000 | 10 to 100 | > 10000 | 100 to 1000 | < 5000 | 10 to 100 | > 1000 | > 10000 | > 10000 | > 10000
